Experiments:
[1] = tested on: breast cancer MCF-7 cells; experiment: Inhibition of growth and change of morphology of MCF-7 cells; assay type: cell-based, human; details: 2.5, 5, 7.5 and 10 µg/mL; for morphology of MCF-7 cells: 72 hours (Fig. 13(A), Fig. 14(A)); for growth of MCF-7 cancer cells: sodium butyrate 4mM, observed and counted after 72 hours (Fig. 13, Fig. 14)
Procedure: The breast cancer MCF-7 cells, were cultured in Dulbecco's modified Eagle's medium (DMEM; Gibco) supplemented with penicillin G, streptomycin sulphate, 0.5 mM of L-glutamine and 10% fetal bovine serum (FBS; Gibco) at 37 °C, 5% CO2 and 95% relative humidity. The cells were seeded at a density of 3×10^5 per well of 6-well plates. After 24 hours, the cells were treated with different concentrations of compound NBM-HD-1 and 4mM sodium butyrate being used as the positive control. The cells were observed after 48 hours and counted after 96 hours. […] In Fig. 8(A), after the cells were incubated with 2.5 µg/mL (Fig. 8(A)-b), 5 µg/mL (Fig. 8(A)-c) and 10 µg/mL (Fig. 8(A)-d) of NBM-HD-1 for 48 hours, the density of MCF-7 cells reduced dramatically in comparison with that of the control group (Fig. 8(A)-a). The morphology of the MCF-7 cells in the experimental group changed in comparison with that in the control group. […] The results of the cell counting (FIG. 8(B)) indicate that, similar to sodium butyrate, NBM-HD-1 inhibits cell growth.
MCF-7 cancer cells were seeded at a density of 3×10^5 per well in 6-well plates. After 24 hours, the cells were treated with different concentrations of compound NBM-HD-2 and 4mM sodium butyrate being used as the positive control. The cells were observed and counted after 72 hours. […] In Fig. 13(A), after the cells were incubated with 2.5 µg/mL (Fig. 13(A)-c), 5 µg/mL (Fig. 13(A)-d), 7.5 µg/mL (Fig. 13(A)-e) and 10 µg/mL (Fig. 13(A)-f) of NBM-HD-2 for 72 hours, the density of MCF-7 cells reduced dramatically in comparison with that of the control group (Fig. 13(A)-a). The morphology of the MCF-7 cells in the experimental group changed in comparison with that in the control group.
MCF-7 cancer cells were seeded at a density of 3×10^5 per well of 6-well plates. After 24 hours, the cells were treated with different concentrations of compound NBM-HD-3 and 4mM sodium butyrate, which was being used as the positive control. The cells were observed and counted after 72 hours. […] In Fig. 14(A), after the cells were incubated with 2.5 µg/mL (Fig. 14(A)-c), 5 µg/mL (Fig. 14(A)-d), 7.5 µg/mL (Fig. 14(A)-e) and 10 µg/mL (Fig. 14(A)-f) of NBM-HD-3 for 72 hours, the density of MCF-7 cells reduced dramatically in comparison with that of the control group (Fig. 14(A)-a). The morphology of the MCF-7 cells in the experimental group changed in comparison with that in the control group. […] The results of the cell counting (FIG. 14(B)) indicate that, similar to sodium butyrate, NBM-HD-3 inhibits cell growth.

acetylated histone H4 = experiment: Western blotting of hyperacetylated histone H4 in C6 glioma cell lysates; assay type: cell-based, rat; details: C6 glioma cells
Procedure: Accumulation of hyperacetylated histone H4 was analyzed in the cell lysates by using Western Blotting and the antibody directed against acetylated histone H4 (Upstate). The C6 glioma cells were seeded at a density of 1×10^6 per 10cm culture dish. After 24 hours, the cells were treated with 10 µg/mL of NBM-HD-1 or 4mM sodium butyrate for several hours. The whole-cell lysates were prepared by using denaturing SDS sample buffer and then separated on 15% SDS-polyacrylamide gels. […] The amount of acetylated histones was hardly detectable in untreated C6 glioma cells. The amount of acetylated histone H4 of the cells treated with 4mM sodium butyrate for 2 hours increased. Sodium butyrate was then removed from the culture medium. After 6 hours, the amount of acetylated histone H4 decreased. The accumulation of acetylated histone H4 increased in the cells treated with NBM-HD-1 for 2 hours. […] The highest histone acetylation appeared at 6 hours after the compound had been removed. […] Because NBM-HD-1 is more hydrophobic than sodium butyrate, NBM-HD-1 can be retained in the cells longer than sodium butyrate and continuously induce the acetylation of histone H4.

[2] = tested on: human giloblastoma DBTRG-05MG cancer cells; experiment: Inhibition of growth and change of morphology of DBTRG-05MG cells; assay type: cell-based; details: NBM-HD-1 2.5, 5 and 10 µg/mL, sodium butyrate 4 mM; 72 hours; density and cell counting (Fig. 7)
Procedure: The human giloblastoma DBTRG-05MG cancer cells were cultured in RPMI medium 1640 (Gibco) supplemented with penicillin G, streptomycin sulphate, 0.5 mM of L-glutamine and 10% fetal bovine serum (FBS; Gibco), 100mh/L sodium pyruvate (Gibco), and 1% NEAA (Gibco) at 37 °C, 5% CO2 and 95% relative humidity. For these experiments, the cells were seeded at a density of 3×10^5 per well of 6-well plates. After 24 hours, the cells were treated with different concentrations of NBM-HD-1 and 4 mM sodium butyrate. The cells were observed and counted after 72 hours. […] In 05MG cells (Fig. 7(A)), after incubation with 2.5 µg/mL (Fig. 7(A)-b), 5 µg/mL (Fig. 7(A)-c) and 10 µg/mL (Fig.7(A)-d) of NBM-HD-1 for 72 hours, the density of the cells reduced dramatically in comparison with that of the control group (Fig. 7(A)-a). The 05MG cells in the experimental group also changed to become longer than those in the control group.

| SMILES | morphology of MCF-7 cells [1] | growth of MCF-7 cancer cells [1] | accumulation of acetylated histone H4, treated for 2 hours (acetylated histone H4; 10 µg/mL NBM-HD-1 or 4mM sodium butyrate, 2 hours (Fig. 5)) | amount of acetylated histone H4 after removal of the compound from the culture medium (acetylated histone H4; up to 6 hours after removal (Fig. 5)) | growth of 05MG cells [2] |
| --- | --- | --- | --- | --- | --- |
| COc1cc2c(c(O)c1CC=C(C)C)C(=O)C[C@@H](c1ccc(OC)c(OC)c1C/C=C(\C)CCCC(C)(C)O)O2 [NBM-HD-2] | change their morphology | can inhibit the growth of MCF-7 cancer cells in a dose-dependent manner | – | – | – |
| COc1cc2c(c(O)c1CCC(C)(C)O)C(=O)C[C@@H](c1ccc(OC)c(OC)c1C/C=C(\C)CCCC(C)(C)O)O2 [NBM-HD-3] | change their morphology | can inhibit the growth of MCF-7 cancer cells in a dose-dependent manner | – | – | – |
| CCCC(=O)[O-].[Na+] [sodium butyrate, reference compound] | – | – | increased | decreased | could inhibit the proliferation of 05MG cancer cells |

— EP2045247B1, “Compounds for the inhibition of histone deacetylase” (NatureWise Biotech & Medicals Corporation, priority 2007, dated 2009)
